# Assay results from patent publication US8501771B2, “Aminoalcohol-substituted aryldihydroisoquinolinones, process for their preparation and their use as medicaments” (Sanofi, priority 2006, dated 2013).
# Target: T1, human MCH receptor (Homo sapiens, UniProt Q99705)
# T1 construct: expressed in transfected cells
# Experiment: Functional IC50 of MCH1R antagonists: cellular calcium flux (FLIPR) after addition of agonist MCH
# Format: cell-based
# Settings: recombinant HEK293 cell line expressing the human MCH receptor
# Description: Influence on the MCH receptor in vitro; determination of functional IC50 values of MCH1R antagonists
# Cloning of the cDNA for the human MCH receptor, preparation of a recombinant HEK293 cell line which expresses the human MCH receptor, and functional measurements with the recombinant cell line took place in analogy to the description by Audinot et al. (J. Biol. Chem. 276, 13554-13562, 2001). A difference from the reference was, however, the use of the plasmid pEAK8 from EDGE Biosystems (USA) for the construction of the expression vector. The host used for the transfection was a transformed HEK cell line named “PEAK Stable Cells” (likewise from EDGE Biosystems). Functional measurements of the cellular calcium flux after addition of agonist (MCH) in the presence of ligand of the invention took place with the aid of the FLIPR apparatus from Molecular Devices (USA), using protocols of the apparatus manufacturer. The compounds of the invention show a significant inhibition (>30%) of the signal induced by the agonist at a concentration of 100 μM, preferably at 10 μM, particularly preferably at 1 μM, very particularly preferably at 100 nM and even more particularly preferably at 10 nM.
# Table 8 summarizes the results which were obtained by the above described calcium […] assay.
# T1 sequence (Q99705 whole entry): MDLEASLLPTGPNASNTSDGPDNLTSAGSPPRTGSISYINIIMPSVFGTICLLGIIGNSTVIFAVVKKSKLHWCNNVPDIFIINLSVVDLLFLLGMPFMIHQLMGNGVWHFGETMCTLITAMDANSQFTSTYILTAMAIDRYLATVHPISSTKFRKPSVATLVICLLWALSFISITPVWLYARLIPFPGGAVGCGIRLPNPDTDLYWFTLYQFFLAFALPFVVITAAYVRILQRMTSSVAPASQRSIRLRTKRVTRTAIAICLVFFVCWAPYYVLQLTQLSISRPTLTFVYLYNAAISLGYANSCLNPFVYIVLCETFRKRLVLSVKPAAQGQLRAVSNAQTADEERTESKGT
row,SMILES,IC50 [nM]
1,"CCCCOc1ccc2c(c1)CCN(c1ccc(O[C@H]3C[C@H]4CC[C@@H](C3)N4C)c(Cl)c1)C2=O [Example 1, 6-Butoxy-2-[3-chloro-4-((1R,3R,5S)-8-methyl-8-azabicyclo[3.2.1]oct-3-yloxy)-phenyl]-3,4-dihydro-2H-isoquinolin-1-one]",930
2,CCCCOc1ccc2c(c1)CCN(c1ccc(OCCN3CCCC3)c(OC)c1)C2=O [Example 6],270
3,CCCCOc1ccc2c(c1)CCN(c1ccc(OC[C@@H]3CCCN4CCCC[C@H]34)cc1)C2=O [Example 9],870
4,COCCOc1ccc2c(c1)CCN(c1ccc(OCCN3CCCC3)c(OC)c1)C2=O [Example 15],5440
5,CN1[C@@H]2CC[C@H]1C[C@@H](Oc1ccc(N3CCc4cc(OCC5CCC5)ccc4C3=O)cc1Cl)C2 [Example 17],1140
6,"CN1[C@@H]2CC[C@H]1C[C@@H](Oc1ccc(N3CCc4cc(OC5CSC5)ccc4C3=O)cc1Cl)C2 [Example 26, 2-[3-Chloro-4-((1R,3R,5S)-8-methyl-8-azabicyclo[3.2.1]oct-3-yloxy)phenyl]-6-(thietan-3-yloxy)-3,4-dihydro-2H-isoquinolin-1-one]",14800
7,CN1[C@@H]2CC[C@H]1C[C@@H](Oc1ccc(N3CCc4cc(C#CC5(O)CCCC5)ccc4C3=O)cc1Cl)C2 [Example 34],1150
8,CCC(O)C#Cc1ccc2c(c1)CCN(c1ccc(O[C@H]3C[C@H]4CC[C@@H](C3)N4C)c(Cl)c1)C2=O (stereo partly drawn) [Example 42],780
9,CN1[C@@H]2CC[C@H]1C[C@@H](Oc1ccc(N3CCc4cc(C#CC(C)(C)O)ccc4C3=O)cc1Cl)C2 [Example 45],1110
10,"Cc1ccc(-c2cc3c(s2)C(=O)N(c2ccc(OCCN(C)C)cc2)CC3)cc1 [Example 55, 6-[4-(2-Dimethylaminoethoxy)phenyl]-2-p-tolyl-5,6-dihydro-4H-thieno[2,3-c]pyridin-7-one]",4900
11,"CN1[C@@H]2CC[C@H]1C[C@@H](Oc1ccc(-n3ccc4cc(OC[C@@H]5CCCO5)ccc4c3=O)cc1)C2 [Example 56, 2-[4-((1R,3R,5S)-8-Methyl-8-azabicyclo[3.2.1]oct-3-yloxy)phenyl]-6-[(S)-1-(tetrahydrofuran-2-yl)methoxy]-2H-isoquinolin-1-one]",160
12,COc1cc(-n2ccc3cc(OC[C@@H]4CCCO4)ccc3c2=O)ccc1OCCN1CCCC1 [Example 65],130
13,COc1cc(-n2ccc3cc(OC[C@H]4CCCO4)ccc3c2=O)ccc1OC1CN2CCC1CC2 (stereo partly drawn) [Example 69],1180
14,Cc1cc(-n2ccc3cc(OC[C@H]4CCCO4)ccc3c2=O)ccc1O[C@H]1C[C@H]2CC[C@@H](C1)N2CC(C)(C)O [Example 72],490
15,COCCN1[C@@H]2CC[C@H]1C[C@@H](Oc1ccc(-n3ccc4cc(OC[C@H]5CCCO5)ccc4c3=O)cc1C)C2 [Example 74],140
16,O=c1c2ccc(OC[C@H]3CCCO3)cc2ccn1-c1ccc(O[C@H]2C[C@H]3CC[C@@H](C2)N3C2CC2)c(F)c1 [Example 75],5010
17,Cc1cc(-n2ccc3cc(OC[C@H]4CCCO4)ccc3c2=O)ccc1O[C@H]1C[C@H]2CC[C@@H](C1)N2Cc1ncc[nH]1 [Example 81],460
18,"COc1cc(-n2ccc3cc(OC[C@@H]4CCCO4)ccc3c2=O)ccc1OCCN1CC2CCC2C1 (stereo partly drawn) [Example 83, 2-{4-[2-(3-Azabicyclo[3.2.0]hept-3-yl)ethoxy]-3-methoxyphenyl}-6-[(S)-1-(tetrahydrofuran-2-yl)methoxy]-2H-isoquinolin-1-one]",840
19,COc1cc(-n2ccc3cc(OC[C@@H]4CCCO4)ccc3c2=O)ccc1OCCN1CC2CCCCC2C1 (stereo partly drawn) [Example 84],250
20,COc1cc(-n2ccc3cc(OC[C@@H]4CCCO4)ccc3c2=O)ccc1OCCN1C2CCC1CC2 [Example 86],210
21,"CCCCOc1ccc2c(c1)CCN(c1ccc(O[C@H]3C[C@H]4CC[C@@H](C3)N4CCCF)cc1)C2=O [Example 89, 6-Butoxy-2-{4-[(1R,3R,5S)-8-(3-fluoropropyl)-8-azabicyclo[3.2.1]oct-3-yloxy]phenyl}-3,4-dihydro-2H-isoquinolin-1-one]",4390
